Here are results for 16 compounds from US7879886B2, “Iron binding agents” (University of Florida Research Foundation, Inc., priority 1998, dated 2011).

The nature of data set [1]: Iron clearance efficiency in the normal (not iron-loaded) bile duct-cannulated Sprague-Dawley rat. It is filed as in vivo. An excerpt: (§1) One screen for efficacy is the normal (not iron-loaded) Sprague-Dawley rat with a cannulated bile duct. In this model, collection of bile and urine after oral or parenteral administration of a chelator permits the rapid determination of the magnitude and route(s) of excretion. The iron-loaded Cebus apella monkey is used as a better screen, however. To date, the behavior of iron chelators in this primate model has been-quantitatively predictive of both the magnitude and routes of iron clearance after human administration.
(§2) The primary measure of activity is the efficiency of the compound, as assessed in both rodent and primate models and compared with sc DFO. Compound efficiency is a comparative evaluation of how much iron excretion a chelator promotes relative to the theoretical amount. For example, the hexacoordinate chelator DFO forms 1:1 iron complexes with a formation constant of 3×10^30 M^−1 (Anderegg et al., Helv. Chim. Acta 46: 1409-1422 (1963)); if the efficiency were 100%, one mmol of DFO administered to an animal would cause one mmol of the iron complex to be excreted. In fact, only 5% of the calculated iron is excreted when DFO is administered to humans (Kirking et al., Clin. Pharmacol. 10:775-783 (1991)). In the case of the DFT analogues, the efficiency calculation is based on the formation of a 2:1 complex with a formation constant assumed to be similar to that of the parent compound, 4×10^29 M^−1 (Anderegg et al., J. Chem. Soc., Chem. Commun. 1194-1196 (1990).

Data set [2] in a line: Iron clearance efficiency in the iron-loaded Cebus apella monkey. It is filed as in vivo.
Text: as §1, §2

The conditions of data set [3]: cited from earlier work.
For a further data set, the system named is malarial parasites. The experiment in a line: Impact on malarial parasites in vitro (48 h exposure, 48 h after removal, percent parasitemia). It is filed as cell-based, Plasmodium. The source says:
Studies can be done on the developmental stages and morphology of the malarial parasite in vitro; the minimum effective concentration required for cytotoxicity can be shown. The target structures include the nuclear envelope, the membrane of the food vacuole, accumulation of electron-dense substances in the mitochondria, undigested materials, and dilation of the endoplasmic reticulum.
In order to determine the concentration at which a compound is cytostatic and cytotoxic, the parasites are exposed to the drug using at least two different concentrations. After 48 h the chelator is removed, and the parasites are incubated for an additional 48 h. The percent parasitemia is determined at both time points (48 and 96 h). The effects of the various compounds on malarial parasites seem quite varied. For the purposes of comparison, DFO can serve as the positive control. […] However, at a concentration of 10^−4 M, DFO is cytotoxic; the plasmodia die during the 48-h incubation with the compound.
The compounds designated as 8 and 22 in Table I are active in this in vitro assay. Others can be similarly tested.

The conditions of data set [4]: administered to humans; cited from earlier work.

Read-outs that look alike come from different tables or passages of the source.

Consider `O=C(O)C1CCSC(c2ncccc2O)=N1` [14(S), 2-(3-hydroxy-2-pyridinyl)4H-5,6-dihydro-1,3-thiazine-4-carboxylic acid], for which the “% Efficiency of Iron Clearance” value in data set [1] (route not given) is “≦0.5%”.
`O=C(C1CSC(c2ncccc2O)=N1)N(O)Cc1ccccc1` (stereo not shown) [Compound 24]: the “% Efficiency of Iron Clearance” value is listed as 1 ± 0.1 (po) % in data set [1] (po), 1.4 ± 0.8 (sc) % in data set [1] (sc), “≦0.5%” in data set [2] (300 μmol/kg po) and “≦0.5%” in data set [2] (300 μmol/kg sc).
On to `C[C@]1(C(=O)O)CSC(c2ncccc2O)=N1` [1(S), desferrithiocin, reference compound], for which the “% Efficiency of Iron Clearance” value in data set [1] (route not given) is listed as 5.5 ± 3.2%; in data set [2] (150 μmol/kg po), 16.1 ± 8.5%. Besides, in data set [3] (2:1 complex), the “Formation constant of iron complex” value was 4e+29 M⁻¹.
`O=C(O)C1CSC(c2ccc(O)cc2O)=N1` [5(R), 4,5-Dihydro-2-(2-,4-dihydroxyphenyl)-4-thiazolecarboxylic acid]: the results for the “% Efficiency of Iron Clearance” value in data set [1] (route not given) and in data set [2] (150 μmol/kg po) were “≦0.5%” and 1.7 ± 0.8%, respectively.
As to `Oc1cccnc1C1=N[C@@H](N(O)CCOCCOCCN(O)[C@H]2CSC(c3ncccc3O)=N2)CS1` [Compound 25, (S,S)-N^1,N^8-bis[4,5-dihydro-2-(3-hydroxy-2-pyridinyl)-4-thiazoyl]-N^1,N^8-dihydroxy-3,6-dioxa-1,8-octanediamine], the results for the “% Efficiency of Iron Clearance” value in data set [1] (po) and in data set [1] (sc) were 4.6 ± 2.1 (po) % and 20.6 ± 1.3 (sc) %, respectively.
In the case of `O=C(O)C[C@H]1CSC(c2ccccc2O)=N1` [16(S), (S)-4,5-Dihydro-2-(2-hydroxyphenyl)-4-thiazoleacetic acid], in data set [1] (route not given), the “% Efficiency of Iron Clearance” value was “≦0.5%”.
Take `C[C@]1(C(=O)O)CSC(c2ccc(O)cc2O)=N1` [28(S), 4′-hydroxydesazaDFT]: the figures for the “% Efficiency of Iron Clearance” value in data set [1] (route not given), in data set [2] (75 μmol/kg po) and in data set [2] (150 μmol/kg po) were “≦0.5%”, 17.7 ± 3.9% and 13.4 ± 5.8%, respectively.
`O=C(O)C1CSC(c2ccc(O)cc2O)=N1` [5(S), 4,5-Dihydro-2-(2-,4-dihydroxyphenyl)-4-thiazolecarboxylic acid]: the “% Efficiency of Iron Clearance” value in data set [1] (po) is 2.4 ± 0.9 (po) %; in data set [2] (150 μmol/kg in H2O sc), 5.6 ± 0.9%; in data set [2] (150 μmol/kg po), 4.2 ± 1.4%; in data set [2] (300 μmol/kg in H2O po), 4.8 ± 1.4%; in data set [2] (300 μmol/kg po), 5.3 ± 1.7%.
For `CN(O)C(=O)[C@H]1CSC(c2ncccc2O)=N1` [Compound 22, (S)-desmethyldesferrithiocin, N-methylhydroxamate], in the data set with malarial parasites, the “Activity in the in vitro malarial parasite assay” value is listed as “active”. The “% Efficiency of Iron Clearance” value is on record as 3.1 ± 0.4 (po) % in data set [1] (po); 5.3 ± 0.7 (sc) % in data set [1] (sc); 6.9 ± 3.0% in data set [2] (150 μmol/kg po); 11.7 ± 5.5% in data set [2] (150 μmol/kg sc); 13.2 ± 7.7% in data set [2] (300 μmol/kg po).
Turning to `COc1cccc(C2=N[C@@H](C(=O)O)CS2)c1O` [6(S), (S)-4,5-dihydro-2-(2-hydroxy-3-methoxyphenyl)-4-thiazolecarboxylic acid], the “% Efficiency of Iron Clearance” value in data set [1] (po) is given as 0.9 ± 0.3 (po) %; in data set [1] (sc) it was 0.5 ± 0.9 (sc) %.
As to `O=C(O)[C@H]1CSC(c2ncccc2O)=N1` [2(S), (S)-desmethyldesferrithiocin], the “% Efficiency of Iron Clearance” value in data set [1] (po) is reported as 2.4 ± 0.56 (po) %; in data set [1] (sc), 1.8 ± 0.7 (sc) %; in data set [2] (150 μmol/kg po) it was 4.8 ± 2.7%; in data set [2] (300 μmol/kg po), 8.0 ± 2.5%; in data set [2] (300 μmol/kg sc), 8.3 ± 2.7%.
Consider `O=C(O)[C@H]1CSC(Cc2ccccc2O)=N1` [15(S), (S)-4,5-Dihydro-2-(2-hydroxyphenylmethyl)-4-thiazolecarboxylic acid], for which the “% Efficiency of Iron Clearance” value in data set [1] (route not given) was “≦0.5%”.
For the compound `CC(=O)N(O)CCCCCNC(=O)CCC(=O)N(O)CCCCCNC(=O)CCC(=O)N(O)CCCCCN` [DFO], the Effect on plasmodia entry in the data set with malarial parasites (48-h incubation at 10^−4 M) is given as “cytotoxic”. Moreover, the “Malarial growth after the compound is removed” value in the data set on malarial parasites (after 48-h exposure at 10^−5 M, compound removed) is “normal growth resumes”. Also, the “Effect on malarial growth” value in the data set on malarial parasites (initial 48-h continuous exposure at 10^−5 M) is recorded as “inhibits malarial growth”. The “Formation constant of iron complex” value in data set [3] (1:1 iron complex) is 3e+30 M⁻¹. For the same compound, in data set [4], the “Efficiency: calculated iron excreted” value is reported as 5%.
In the case of `C[C@]1(C(=O)O)CSC(c2ccccc2O)=N1` [9(S)], the “% Efficiency of Iron Clearance” value in data set [1] (po) is 2.7 ± 0.5 (po) %; in data set [2] (75 μmol/kg po) it was 21.5 ± 12%; in data set [2] (300 μmol/kg po) it was 13.1 ± 4%; in data set [2] (300 μmol/kg sc) it was 43.3 ± 8.5%.
On to `O=C(O)CC[C@H]1CSC(c2ccccc2O)=N1` [17(S), (S)-4,5-dihydro-2-(2-hydroxyphenyl)-4-thiazolepropanoic acid], for which, in data set [1] (route not given), the “% Efficiency of Iron Clearance” value is “≦0.5%”.
For the compound `O=C(O)c1ccc(C2=N[C@@H](C(=O)O)CS2)c(O)c1` [7(S), (S)-4,5-Dihydro-2-(2-hydroxy-4-carboxyphenyl)-4-thiazolecarboxylic acid], the “% Efficiency of Iron Clearance” value in data set [1] (route not given) is “≦0.5%”.
